This passage reports IC50 results from patent US20240270741A1 (Cogent Biosciences, Inc., priority 2023, published 2024).

For the first assay, the target named is FGFR2 (Homo sapiens, UniProt P21802). The assay is described as follows: FGFR wild type enzyme assay (HTRF KinEASE-TK), FGFR2. Conditions: Enz FGFR2 (nM).
FGFR2, sequence (P21802 399-821 limits assumed): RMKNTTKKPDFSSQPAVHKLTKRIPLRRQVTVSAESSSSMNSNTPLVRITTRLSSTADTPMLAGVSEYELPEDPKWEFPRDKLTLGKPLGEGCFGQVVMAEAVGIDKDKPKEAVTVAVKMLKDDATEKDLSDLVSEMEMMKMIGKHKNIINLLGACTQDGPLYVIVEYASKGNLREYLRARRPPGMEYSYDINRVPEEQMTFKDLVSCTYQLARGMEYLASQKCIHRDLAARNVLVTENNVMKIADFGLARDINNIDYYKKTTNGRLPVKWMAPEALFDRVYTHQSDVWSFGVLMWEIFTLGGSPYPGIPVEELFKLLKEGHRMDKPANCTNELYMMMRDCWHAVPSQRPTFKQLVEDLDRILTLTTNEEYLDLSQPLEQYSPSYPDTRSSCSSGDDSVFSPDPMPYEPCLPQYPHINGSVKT
Take `CN1CCC[C@@H]1C(=O)N1CCC(n2cc(-c3cc(Sc4ncccc4F)c4c(C#N)cnn4c3)cn2)CC1` [Example 127, 4-[(3-fluoro-2-pyridyl)sulfanyl]-6-[1-[1-[(2R)-1-methylpyrrolidine-2-carbonyl]-4-piperidyl]pyrazol-4-yl]pyrazolo[1,5-a]pyridine-3-carbonitrile]: the IC50 was determined as 1 nM.

The compound `Cc1c(-c2cc(Sc3ccccn3)c3c(C#N)cnn3c2)cnn1[C@H]1CCCNC1` [Example 56, 6-[5-methyl-1-[(3S)-3-piperidyl]pyrazol-4-yl]-4-(2-pyridylsulfanyl)pyrazolo[1,5-a]pyridine-3-carbonitrile] had an IC50 of 6 nM.

Compound `Cc1c(-c2cc(Sc3ccccn3)c3c(C#N)cnn3c2)cnn1C1CCN(C(=O)CO)CC1` [Example 98, 6-(1-(1-(2-hydroxyacetyl)piperidin-4-yl)-5-methyl-1H-pyrazol-4-yl)-4-(pyridin-2-ylthio)pyrazolo[1,5-a]pyridine-3-carbonitrile] showed an IC50 of 7 nM.

In the case of `Cc1c(-c2cc(Sc3ccccc3C#N)c3c(C#N)cnn3c2)cnn1[C@@H]1CCNC1` [Example 106, 4-(2-cyanophenyl) sulfanyl-6-[5-methyl-1-[(3R)-pyrrolidin-3-yl]pyrazol-4-yl]pyrazolo[1,5-a]pyridine-3-carbonitrile], half-maximal inhibition (IC50) required 2 nM.

As for `Cc1c(-c2cc(Sc3ncccc3F)c3c(C#N)cnn3c2)cnn1C1CCNCC1` [Example 101, 4-[(3-fluoro-2-pyridyl)sulfanyl]-6-[5-methyl-1-(4-piperidyl)pyrazol-4-yl] pyrazolo[1,5-a]pyridine-3-carbonitrile], the IC50 was determined as 2 nM.

In turn, `N#Cc1cnn2cc(-c3cnn([C@H]4CCCNC4)c3)cc(Sc3ncccc3C(F)(F)F)c12` [Example 67] registered an IC50 of 4 nM.

As to `N#Cc1cnn2cc(-c3cnn([C@H]4CCCNC4)c3)cc(Sc3cnccn3)c12` [Example 55, 6-[1-[(3S)-3-piperidyl]pyrazol-4-yl]-4-pyrazin-2-ylsulfanyl-pyrazolo[1,5-a]pyridine-3-carbonitrile], it took 13 nM to reach half-maximal inhibition (IC50).

Still in this assay, the particulars now being: Enz FGFR2 (nM), FGFR2 wild type enzyme.
As to `Cc1c(-c2cc(Sc3ccccc3C#N)c3c(C#N)cnn3c2)cnn1C1CCN(Cc2ncccn2)CC1` [Example 286, 4-((2-cyanophenyl)thio)-6-(5-methyl-1-(1-(pyrimidin-2-ylmethyl)piperidin-4-yl)-1H-pyrazol-4-yl)pyrazolo[1,5-a]pyridine-3-carbonitrile], the half-inhibitory concentration (IC50) turned out to be 1 nM.

`CO[C@H](C)CN1CCC(n2ncc(-c3cc(Sc4ncccc4F)c4c(C#N)cnn4c3)c2C)CC1` [Example 148, (R)-4-((3-fluoropyridin-2-yl)thio)-6-(1-(1-(2-methoxypropyl)piperidin-4-yl)-5-methyl-1H-pyrazol-4-yl)pyrazolo[1,5-a]pyridine-3-carbonitrile] came in with an IC50 of 2 nM.

In turn, `CC(=O)N1C[C@@H]2[C@H](C1)[C@@H]2Cn1ncc(-c2cc(Sc3ncccc3F)c3c(C#N)cnn3c2)c1C` [Example 238, 6-(1-(((1R,5S,6s)-3-acetyl-3-azabicyclo[3.1.0]hexan-6-yl)methyl)-5-methyl-1H-pyrazol-4-yl)-4-((3-fluoropyridin-2-yl)thio)pyrazolo[1,5-a]pyridine-3-carbonitrile] displayed an IC50 of 3 nM.

For `CC(=O)N[C@H]1CC[C@@H](n2cc(-c3cc(Sc4ccccc4C#N)c4c(C#N)cnn4c3)cn2)CC1` [Example 316, N-((1s,4s)-4-(4-(3-cyano-4-((2-cyanophenyl)thio)pyrazolo [1,5-a]pyridin-6-yl)-1H-pyrazol-1-yl)cyclohexyl)acetamide], the IC50 stood at 0.4 nM.

For `Cc1c(-c2cc(Sc3ncccc3F)c3c(C#N)cnn3c2)cnn1C[C@@H]1[C@@H]2CNC[C@@H]21` [Example 236, 6-(1-(((1R,5S,6s)-3-azabicyclo[3.1.0]hexan-6-yl)methyl)-5-methyl-1H-pyrazol-4-yl)-4-((3-fluoropyridin-2-yl)thio)pyrazolo[1,5-a]pyridine-3-carbonitrile], half-maximal inhibition (IC50) was put at 1 nM.

Regarding `Cc1c(-c2cc(Sc3ccc(F)cc3C#N)c3c(C#N)cnn3c2)cnn1[C@H]1CC[C@H](NC(=O)CO)CC1` [Example 301, N-((1r,4r)-4-(4-(3-cyano-4-((2-cyano-4-fluorophenyl)thio)pyrazolo [1,5-a]pyridin-6-yl)-5-methyl-1H-pyrazol-1-yl)cyclohexyl)-2-hydroxyacetamide], the half-inhibitory concentration (IC50) was 1 nM.

`Cc1c(-c2cc(Sc3ccc(F)cc3C#N)c3c(C#N)cnn3c2)cnn1[C@H]1CC[C@H](O)CC1` [Example 275, 4-(2-cyano-4-fluoro-phenyl)sulfanyl-6-[1-(4-hydroxycyclohexyl)-5-methyl-pyrazol-4-yl]pyrazolo[1,5-a]pyridine-3-carbonitrile] came in with an IC50 of 1 nM.

Still in this assay, the particulars now being: Enz FGFR2 (nM), FGFR2 wild type enzyme assay.
`N#Cc1nn([C@H]2CCCNC2)cc1-c1cc(Sc2ncccc2F)c2c(C#N)cnn2c1` [Example 507, (S)-6-(3-cyano-1-(piperidin-3-yl)-1H-pyrazol-4-yl)-4-((3-fluoropyridin-2-y)thio)pyrazolo[1,5-a]pyridine-3-carbonitrile] came in with an IC50 of 30 nM.

`Cc1nc(Sc2cc(-c3cnn([C@H]4CCCNC4)c3)cn3ncc(C#N)c23)c(F)cc1F` [Example 631, (S)-4-((3,5-difluoro-6-methylpyridin-2-yl)thio)-6-(1-(piperidin-3-yl)-1H-pyrazol-4-yl)pyrazolo[1,5-a]pyridine-3-carbonitrile]: the IC50 is 1 nM.

The compound `C[C@@H](O)C(=O)N1CCC(n2cc(-c3cc(Sc4ccccc4C#N)c4c(C#N)cnn4c3)cn2)CC1` [Example 447] yielded an IC50 of 0.4 nM.

The compound `CN1CCN(c2ccc(-c3cc(Sc4ncccc4F)c4c(C#N)cnn4c3)cc2)CC1` [Example 467, 4-((3-fluoropyridin-2-yl)thio)-6-(4-(4-methylpiperazin-1-yl)phenyl)pyrazolo[1,5-a]pyridine-3-carbonitrile] returned a concentration for half-maximal inhibition (IC50) of 0.4 nM.

`Cc1ccc(C#N)c(Sc2cc(-c3cnn(C4CCN(C)CC4)c3C)cn3ncc(C#N)c23)c1` [Example 357, 4-((2-cyano-5-methylphenyl)thio)-6-(5-methyl-1-(1-methylpiperidin-4-yl)-1H-pyrazol-4-yl)pyrazolo[1,5-a]pyridine-3-carbonitrile] showed an IC50 of 2 nM.

As for `N#Cc1ccccc1Sc1cc(-c2cnn([C@@H]3CCN(CCO)C3)c2)cn2ncc(C#N)c12` [Example 603, (R)-4-((2-cyanophenyl)thio)-6-(1-(1-(2-hydroxyethyl)pyrrolidin-3-yl)-1H-pyrazol-4-yl)pyrazolo[1,5-a]pyridine-3-carbonitrile], the half-inhibitory concentration (IC50) was found to be 0.6 nM.

With `Cc1ccc(Sc2cc(-c3cnn(C4CCN(C)CC4)c3C)cn3ncc(C#N)c23)c(C#N)c1` [Example 378, 4-((2-cyano-4-methylphenyl)thio)-6-(5-methyl-1-(1-methylpiperidin-4-yl)-1H-pyrazol-4-yl)pyrazolo[1,5-a]pyridine-3-carbonitrile], 4 nM corresponded to half-maximal inhibition (IC50).

In turn, `CC(=O)N1CC[C@@H](n2cc(-c3cc(Sc4ccccc4C#N)c4c(C#N)cnn4c3)cn2)[C@H](O)C1` [Example 459, 6-(1-((3R,4R)-1-acetyl-3-hydroxypiperidin-4-yl)-1H-pyrazol-4-yl)-4-((2-cyanophenyl)thio)pyrazolo [1,5-a]pyridine-3-carbonitrile] returned a half-maximal inhibitory concentration (IC50) of 0.4 nM.

`Cc1c(-c2cc(Sc3ccc(F)cc3C#N)c3c(C#N)cnn3c2)cnn1[C@H]1CCCN(C)C1` [Example 335, (S)-4-((2-cyano-4-fluorophenyl)thio)-6-(5-methyl-1-(1-methylpiperidin-3-yl)-1H-pyrazol-4-yl)pyrazolo[1,5-a]pyridine-3-carbonitrile] came in with an IC50 of 1 nM.

`[2H]C([2H])([2H])n1cc(-c2cc(Sc3ccccc3C#N)c3c(C#N)cnn3c2)cn1` [Example 641, 4-((2-cyanophenyl)thio)-6-(1-(methyl-d3)-1H-pyrazol-4-yl)pyrazolo[1,5-a]pyridine-3-carbonitrile] registered an IC50 of 1 nM.

With `CN1CCN(c2ccc(-c3cc(Sc4ccc(F)cc4C#N)c4c(C#N)cnn4c3)cn2)CC1` [Example 560, 4-((2-cyano-4-fluorophenyl)thio)-6-(6-(4-methylpiperazin-1-yl)pyridin-3-yl)pyrazolo[1,5-a]pyridine-3-carbonitrile], the IC50 is 1 nM.

For `Cc1c(-c2cc(Sc3ccc(F)cc3C#N)c3c(C#N)cnn3c2)cnn1[C@@H]1CCN(C)C(C)(C)C1` [Example 388, (R)-4-((2-cyano-4-fluorophenyl)thio)-6-(5-methyl-1-(1,2,2-trimethylpiperidin-4-yl)-1H-pyrazol-4-yl)pyrazolo[1,5-a]pyridine-3-carbonitrile], half-maximal inhibition (IC50) was put at 0.5 nM.

In turn, `CC(=O)N1CCC(n2ncc(-c3cc(Sc4nccc(C)c4F)c4c(C#N)cnn4c3)c2C)CC1` [Example 382, 6-(1-(1-acetylpiperidin-4-yl)-5-methyl-1H-pyrazol-4-yl)-4-((3-fluoro-4-methylpyridin-2-yl)thio)pyrazolo[1,5-a]pyridine-3-carbonitrile] yielded an IC50 of 14 nM.

In turn, `Cc1c(-c2cc(Sc3ccc(F)cc3C#N)c3c(C#N)cnn3c2)cnn1[C@@H]1C[C@H]2CC[C@@H](C1)N2C(=O)CO` [Example 372, 4-((2-cyano-4-fluorophenyl)thio)-6-(1-((1R,3s,5S)-8-(2-hydroxyacetyl)-8-azabicyclo[3.2.1]octan-3-yl)-5-methyl-1H-pyrazol-4-yl)pyrazolo[1,5-a]pyridine-3-carbonitrile] gave an IC50 of 1 nM.

`Cc1c(-c2cc(Sc3ccc(F)cc3C#N)c3c(C#N)cnn3c2)cnn1[C@H]1CCCN(c2ccccn2)C1` [Example 456, (S)-4-((2-cyano-4-fluorophenyl)thio)-6-(5-methyl-1-(1-(pyridin-2-yl)piperidin-3-yl)-1H-pyrazol-4-yl)pyrazolo[1,5-a]pyridine-3-carbonitrile] showed an IC50 of 8 nM.

`N#Cc1cnn2cc(-c3ccc(N4C[C@@H](O)[C@H](O)C4)nc3)cc(Sc3ncccc3F)c12` [Example 655, 6-(6-((3R,4R)-3,4-dihydroxypyrrolidin-1-yl)pyridin-3-yl)-4-((3-fluoropyridin-2-yl)thio)pyrazolo[1,5-a]pyridine-3-carbonitrile] showed an IC50 of 3 nM.
